Numbered stars: 1 amine (or outer) side, 2 acyl side, 3 side chain; on linkers, the order of the positions; unused ones are H or OH. Square brackets hold non-standard residues; d marks the D form. Peptide text beside a SMILES is read from it. * marks the point of attachment. X1 = N[C@@H](CC(=O)[*:2])[C@H](Cc1ccccc1)N[*:1]; Tle = CC(C)(C)[C@H](N)C(=O)O; Isovaleryl = CC(C)CC(=O)*; Abu = CC[C@H](N)C(=O)O; Boc = CC(C)(C)OC(=O)*
Columns and labels:
bovine explants = assay: Cartilage explant assay (pH-induced cartilage degradation, GAG liberation); format: cell-based; conditions: Bos taurus, 72 h, pH 5.5, 3 days
Text: In order to investigate the effect of potential cathepsin D inhibitors on cartilage degradation, a pH-induced model based on bovine explants is used. The pH of the medium in which the explants are cultivated is matched here to the pathophysiological pH of an arthrotic knee. This pH is pH 5.5. In this ex vivo model, potential cathepsin D inhibitors are subsequently investigated for their action with respect to stopping of the cartilage degradation process. If the cartilage is destroyed, glycosaminoglycans (GAGs) are released into the cell culture supernatant. The amount of GAGs liberated can be determined quantitatively with the aid of DMMB (dimethylmethylene blue hydrochloride). If sulfated GAGs are detected using dimethylmethylene blue hydrochloride, the decrease in the absorption at 633 nm is utilised. […] In order to determine the concentration, a calibration line is also recorded using chondroitin sulfate.
The bovine explants are firstly prepared. The induction of the cartilage degradation is carried out in 96-multiwell plates. One explant is cultivated per well. In each case, 200 μl of DMEM (incubation medium pH 5.5) without FBS+30 μg/ml of ascorbic acid are added. Thus negative control, explants (n=4) are incubated at pH 7.4 (without FBS). This control is not included in the calculation of the data, but instead ensures that the pH change has the desired effect on the liberation of GAG. At this point, the substances to be tested are added. No preincubation of the explants is carried out. The explants are cultivated with the corresponding substances for 3 days in the incubator at 37° C. and 7.5% CO2.
In order to investigate the effect of cathepsin D inhibitors on the liberation of GAG (glycosaminoglycan), the substances are employed in the desired concentration and cultivated for 3 days. The compounds to be tested are tested in a first experiment in a concentration of 1 μM and 1% of DMSO. Substances which have an effect of >50% on the liberation of GAG (this corresponds to <50% of the control in the Assay Explorer) are tested in the next experiment at 100 nM and 1% of DMSO. Substances which have an effect of >50% on the liberation of GAG under these conditions (this corresponds to <50% of the control in the Assay Explorer) are tested in a concentration/effect relationship. The compounds here are investigated in the following concentrations: 30 μM, 10 μM, 3 μM, 1 μM, […], 0.1 μM, 0.03 μM, 0.01 μM.
The positive control used is pepstatin A with a concentration of 0.01 μM. The assay window is defined by the control (pH 5.5), defined as 0% effect, and the control pH 5.5+0.01 μM pepstatin A, defined as 100% effect. After incubation for 3 days, the cell culture supernatants are collected and stored at −20° C. or measured directly. The amount of liberated GAG is measured photometrically.
The effect (1 value) of the respective substance in % based on the positive control (pH 5.5+0.01 μM pepstatin A) and the negative control (pH 5.5) is reported for concentrations of 1 μM and 100 nM. The value represents the average of 4 replicants. In the determination of a concentration/effect relationship, an IC50 value is reported to the database (Assay Explorer).
The cell culture supernatants (200 μl) are either measured directly or stored at −20° C. In order to ensure an accurate determination of the concentration (μg/ml of GAG in the supernatant) of GAG, the measurement values must be located in the linear region of the standard curve. In order to ensure this, various dilutions are routinely introduced (1/5, 1/10, 1/20, 1/40). The dilutions are prepared with medium and introduced automatically (Hamilton) into a 384-well plate (15 μl). 60 μl of DMMB solution are likewise added automatically (or using a multichannel pipette). A rapid colour reaction occurs, which is subsequently measured at 633 nm using a plate reader (for example Envision).

[1] = target: cathepsin D isolated from the human liver (Homo sapiens (Human), UniProt P07339); assay: In-vitro fluorescence assay for identification of cathepsin D inhibitors; format: biochemical; conditions: cathepsin D 1.4 nM, pH 5.5; read-out: CatD assay IC50-
cathepsin D isolated from the human liver, sequence (P07339 65-161): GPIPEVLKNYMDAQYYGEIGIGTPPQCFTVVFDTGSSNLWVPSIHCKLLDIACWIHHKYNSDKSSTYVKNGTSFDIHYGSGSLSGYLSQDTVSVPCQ
cathepsin D isolated from the human liver, sequence (P07339 169-412): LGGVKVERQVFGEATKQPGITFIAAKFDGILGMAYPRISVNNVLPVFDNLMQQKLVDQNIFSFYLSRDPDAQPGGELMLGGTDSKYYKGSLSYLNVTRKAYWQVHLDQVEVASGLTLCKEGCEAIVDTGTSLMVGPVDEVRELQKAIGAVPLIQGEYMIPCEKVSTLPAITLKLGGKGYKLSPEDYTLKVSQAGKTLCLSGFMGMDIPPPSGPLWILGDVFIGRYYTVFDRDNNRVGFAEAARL
Method: In order to identify modulators of cathepsin D activity, a continuous enzymatic test was carried out with a synthetic peptide which carries a fluorescent group (MCA=(7-methoxycoumarin-4-yl)acetyl) which is quenched by energy transfer from a Dpn (2,4 dinitrophenyl) group on the same molecule, in Greiner 384-well nb microtitre plates. Cleavage of the peptidic substrate by cathepsin D causes an increase in the fluorescence intensity. In order to determine the efficacy of substances, the time-dependent increase in the fluorescence intensity in the presence of the substance was compared with the time-dependent increase in fluorescence in the absence of substances. The reference substance used was pepstatin A (Sigma-Aldrich). The substrate used was […](Dnp)d-R—NH2 (Enzo Life Sciences, Lörrach). The enzyme employed was cathepsin D isolated from the human liver (Sigma-Aldrich) in a final concentration of 1.4 nM. The test was carried out in 100 mM sodium acetate buffer, 1.25% (v/v) of DMSO, 0.25% (w/v) of Chaps, pH 5.5. 2 μl of each substance solution with serially diluted substance concentration were added to in each case 4 μl of cathepsin D solution and incubated at room temperature for 10 min. The reaction was started by addition of 2 μl of substrate solution (final concentration 5 μM). After carrying out a starting-point fluorescence measurement (excitation wavelength 340 nm/emission wavelength 450 nm) using an Envision multilabel reader (Perkin Elmer), the reaction was incubated at room temperature for 60 min. The amount of peptide fragment cleaved off during the reaction time was subsequently measured by determination of the increase in the fluorescence intensity at 450 nm (excitation wavelength 340 nm).

recombinant human renin = recombinant human renin (Homo sapiens (Human), UniProt P00797); assay: In-vitro fluorescence assay for identification of renin-inhibitory activity; format: biochemical; conditions: recombinant human renin 10 nM, pH 7.2; read-out: Renin selectivity IC50
recombinant human renin, sequence (P00797 67-406): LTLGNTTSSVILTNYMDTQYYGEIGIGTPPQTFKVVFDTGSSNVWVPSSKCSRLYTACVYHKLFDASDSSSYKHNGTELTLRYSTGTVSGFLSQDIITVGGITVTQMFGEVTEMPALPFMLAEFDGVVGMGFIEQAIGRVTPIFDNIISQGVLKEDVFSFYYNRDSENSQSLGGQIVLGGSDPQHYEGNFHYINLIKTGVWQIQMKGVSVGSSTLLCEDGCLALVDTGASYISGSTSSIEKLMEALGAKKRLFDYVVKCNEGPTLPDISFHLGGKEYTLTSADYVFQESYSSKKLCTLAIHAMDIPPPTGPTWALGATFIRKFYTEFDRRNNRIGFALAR
Method: In order to identify modulators of renin activity, a continuous enzymatic test was carried out with a synthetic peptide which carries a fluorescent group Edans (=(5-(aminoethyl)aminonaphthalenesulfonate) which is quenched by energy transfer from a Dabcyl (4′-dimethylaminoazobenzene-4-carboxylate) group on the same molecule, in Greiner 384-well microtitre plates. Cleavage of the peptidic substrate by renin causes an increase in the fluorescence intensity. In order to determine the efficacy of substances, the time-dependent increase in the fluorescence intensity in the presence of the substance was compared with the time-dependent increase in fluorescence in the absence of substances. The reference substance used was renin inhibitor 2 (Z-Arg-Arg-Pro-Phe-His-Sta-Ile-His N-Boc-Lys methyl ester Z) (Sigma-Aldrich). The substrate used was renin FRET substrate I (DABCYL-g-Abu-[…]EDANS) (Anaspec, Fremont Calif.). The enzyme employed was recombinant human renin (Proteos, Kalamazoo, Mich.) in a final concentration of 10 nM. The test was carried out in 50 mM Mops buffer, 1.5% (v/v) of DMSO, 0.1% (w/v) of Igepal®, pH 7.2, 0.5% (w/v) of BSA. 2 μl of each substance solution with serially diluted substance concentration were added to in each case 4 μl of renin solution and incubated at room temperature for 15 min. The reaction was started by addition of 4 μl of substrate solution (final concentration 5 μM). After carrying out a starting-point fluorescence measurement (excitation wavelength 340 nm/emission wavelength 495 nm) using an Envision multilabel reader (Perkin Elmer), the reaction was incubated at 37° C. for 60 min. The amount of peptide fragment cleaved off during the reaction time was subsequently measured by determination of the increase in the fluorescence intensity at 495 nm (excitation wavelength 340 nm).

| Structure (SMILES) | IC50 (bovine explants) [nM] | IC50 [1] [nM] | IC50 (recombinant human renin) [nM] |
| --- | --- | --- | --- |
| CC[C@H](C)[C@H](NC(=O)C[C@H](N)[C@H](Cc1ccccc1)NC(=O)[C@@H](NC(=O)CCc1ccccc1)C(C)C)C(=O)N[C@H](C(=O)OC)C(C)C [Compound 17, Methyl (S)-2-((2S,3S)-2-{(3S,4S)-3-amino-4-[(S)-3-methyl-2-(3-phenylpropionylamino)butyrylamino]-5-phenylpentanoylamino}-3-methylpentanoylamino)-3-methyl-butyrate] | 55.2 | – | – |
| CC[C@H](C)[C@H](NC(=O)C[C@H](N)[C@H](Cc1ccccc1)NC(=O)[C@@H](NC(=O)[C@H](CC(C)C)NC(=O)CC(C)C)C(C)C)C(=O)Nc1cccnc1 [Compound 25, N-[(1S,2S)-2-Methyl-1-(pyridin-3-yl-carbamoyl)butyl]-(S)-3-amino-4-{(S)-(S)-3-methyl-2-[(S)-4-methyl-2-(3-methylbutyryl-amino)pentanoylamino]butyrylamino}-5-phenylpentanamide] | 27.5 | 520 | > 30000 |
| CC[C@H](NC(=O)[C@H](CC(C)C)NC(=O)CC(C)C)C(=O)N[C@@H](Cc1ccccc1)[C@@H](N)CC(=O)NCCc1ccc2c(c1)OCO2 [Compound 5, N-(2-Benzo-1,3-dioxol-5-ylethyl)-(3S,4S)-3-amino-4-{(S)-2-[(S)-4-methyl-2-(3-methyl-butyrylamino)pentanoylamino]butyryl-amino}-5-phenylpentanamide] | 7.73 | 1800 | > 30000 |
| CC[C@H](NC(=O)[C@H](CC(C)C)NC(=O)OC(C)(C)C)C(=O)N[C@@H](Cc1ccccc1)[C@@H](N)CC(=O)N[C@H](C(=O)N[C@H](C(=O)OC)C(C)C)[C@@H](C)CC [Compound 1, Methyl (S)-2-((2S,3S)-2-{(3S,4S)-3-amino-4-[(S)-2-((S)-2-tert-butoxycarbonylamino-4-methylpentanoylamino)butyrylamino]-5-phenylpentanoylamino}-3-methylpentanoylamino)-3-methylbutyrate] (Boc-L[Abu][X1]IV-OMe) | 3.13 | 40 | – |
| CC[C@H](C)[C@H](NC(=O)C[C@H](N)[C@H](Cc1ccccc1)NC(=O)[C@@H](NC(=O)Cc1cccc(OC(F)(F)F)c1)[C@@H](C)CC)C(=O)N[C@H](C(=O)O)C(C)C [Compound 37, (S)-2-[(2S,3S)-2-((3S,4S)-3-Amino-4-{(1S,4S)-3-methyl-2-[2-(3-trifluoromethoxy-phenyl)acetylamino]pentanoylamino}-5-phenylpentanoylamino)-3-methylpentanoylamino]-3-methylbutyric acid] | 8.2 | 3.2 | > 30000 |
| CC[C@H](C)[C@H](NC(=O)C[C@H](N)[C@H](Cc1ccccc1)NC(=O)[C@@H](NC(=O)Cc1cccc(OC(F)(F)F)c1)C(C)C)C(=O)NCCC(C)C [Compound 36, N-[(1S,2S)-2-Methyl-1-(3-methylbutyl-carbamoyl)butyl]-(S)-3-(S)-amino-4-{(S)-3-methyl-2-[2-(3-trifluoromethoxyphenyl)-acetylamino]butyrylamino}-5-phenyl-penlanamide] | 13.8 | 28 | > 30000 |
| CC[C@H](C)[C@H](NC(=O)C[C@H](N)[C@H](Cc1ccccc1)NC(=O)[C@@H](NC(=O)[C@H](CC(C)C)NC(=O)CC(C)C)C(C)(C)C)C(=O)N[C@H](C(=O)OC)C(C)C [Compound 31, Methyl (S)-2-[(2S,3S)-2-((3S,4S)-3-amino-4-{(S)-3,3-dimethyl-2-[(S)-4-methyl-2-(3-methylbutyrylamino)pentanoylamino]-butyrylamino}-5-phenylpentanoylamino)-3-methylpentanoylamino]-3-methylbutyrate] (Isovaleryl-L[Tle][X1]IV-OMe) | – | 120 | > 30000 |
